Data taken from article PMC9363231, “High‐resolution analysis of individual spike peptide‐specific CD4 ^+ T‐cell responses in vaccine recipients and COVID‐19 patients” (Clinical & Translational Immunology, 2022).
Read-outs that look alike come from different tables or passages of the source.

How the values were obtained:
HLA-DRB1*01:01 = HLA-DRB1*01:01 (Homo sapiens, UniProt P01903+P01911, A100R/D57E/F55L/F60I/F76Y/I96L/L162R/M171V/P40L/Q125E/R42F/V115G/Y59C); test: biochemical; assay type: binding
HLA-DRB1*03:01 = HLA-DRB1*03:01 (Homo sapiens, UniProt P01903+P01911, A100K/A102G/A103R/A169T/F55Y/I96L/K41T/L162R/M171V/P40S/Q125H/Q178H/Q39Y/R42S/S66N/T106N/T262R/W38E/Y61H); test: biochemical; assay type: binding
HLA-DRB1*04:01 = HLA-DRB1*04:01 (Homo sapiens, UniProt P01903+P01911, A100K/A169T/F76Y/I96L/K127E/L162R/M171V/N62H/P40V/Q125Y/R42H/S133A/S149N/S66Y/V115G/V209L/W38E); test: biochemical; assay type: binding
HLA-DRB1*04:05 = HLA-DRB1*04:05 (Homo sapiens, UniProt P01903+P01911, A100R/A169T/D86S/F76Y/I96L/K127E/L162R/M171V/N62H/P40V/Q125Y/R42H/S133A/S149N/S66Y/V115G/V209L/W38E); test: biochemical; assay type: binding
HLA-DRB1*07:01 = HLA-DRB1*07:01 (Homo sapiens, UniProt P01903+P01911, A100R/A102G/A103Q/D57E/D86V/E43K/F76Y/K127E/L162R/M171V/P40G/Q125H/Q99D/R33Q/R42Y/R54Q/S133A/S66F/T210M/V115G/Y107V/Y59L/Y89S); test: biochemical; assay type: binding
HLA-DRB1*08:02 = HLA-DRB1*08:02 (Homo sapiens, UniProt P01903+P01911, A100R/A103L/A169T/F76Y/H45Y/I96F/K41T/L162R/M171V/P40S/Q125H/Q178H/Q39Y/Q99D/R218S/R42G/S66Y/V115G/W38E); test: biochemical; assay type: binding
HLA-DRB1*09:01 = HLA-DRB1*09:01 (Homo sapiens, UniProt P01903+P01911, A100R/A103E/D57H/D86V/F55Y/F60I/F76Y/I96F/K127E/L162R/M171V/P40D/Q125H/Q99R/R33Q/R42F/S133A/S66N/T210M/V115G/W38K/Y107V/Y59G/Y89S); test: biochemical; assay type: binding
HLA-DRB1*11:01 = HLA-DRB1*11:01 (Homo sapiens, UniProt P01903+P01911, A100R/A169T/A87E/I96F/K41T/L162R/M171V/P40S/Q125H/Q178H/Q39Y/Q99D/R42S/S66Y/T262R/V115G/W38E); test: biochemical; assay type: binding
HLA-DRB1*12:01 = HLA-DRB1*12:01 (Homo sapiens, UniProt P01903+P01911, A100R/A169T/D57E/D86V/F55L/H45Y/K41T/L162R/M171V/P40S/Q125H/Q178H/Q39Y/Q99D/R42G/S66L/T262R/V114A/V67L/W38E/Y59H/Y61H/Y89S); test: biochemical; assay type: binding
HLA-DRB1*13:02 = HLA-DRB1*13:02 (Homo sapiens, UniProt P01903+P01911, A100E/A169T/K41T/L162R/M171V/P40S/Q125H/Q178H/Q39Y/Q99D/R42S/S66N/T262R/V115G/W38E/Y61H); test: biochemical; assay type: binding
HLA-DRB1*15:01 = HLA-DRB1*15:01 (Homo sapiens, UniProt P01903+P01911); test: biochemical; assay type: binding
CD4+ T cells = assay type: cell-based, human
HLA-DPB1*04:01 = target: T1, HLA-DPB1*04:01 (Homo sapiens, UniProt P04440+P20036); test: In vitro HLA binding (data not shown)
T1 sequence (P04440 30-258): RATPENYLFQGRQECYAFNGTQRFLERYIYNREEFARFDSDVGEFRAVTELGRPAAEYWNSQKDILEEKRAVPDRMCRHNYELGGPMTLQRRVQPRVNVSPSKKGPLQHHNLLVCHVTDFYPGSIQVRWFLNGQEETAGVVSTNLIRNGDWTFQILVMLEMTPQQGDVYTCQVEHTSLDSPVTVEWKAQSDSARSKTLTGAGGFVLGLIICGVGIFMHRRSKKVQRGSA
T1 sequence (P20036 29-260): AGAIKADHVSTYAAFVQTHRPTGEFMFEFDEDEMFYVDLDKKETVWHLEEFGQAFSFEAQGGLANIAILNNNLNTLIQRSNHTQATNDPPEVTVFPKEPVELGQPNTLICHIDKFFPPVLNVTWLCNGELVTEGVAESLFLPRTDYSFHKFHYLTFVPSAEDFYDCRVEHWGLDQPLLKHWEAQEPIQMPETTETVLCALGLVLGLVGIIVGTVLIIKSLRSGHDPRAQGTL

HLA-DPB1*04:02 = test: In vitro HLA binding (data not shown); design: species or system human

Chain of HLA-DRB1*03:01 (P01903 26-254, other chains not shown): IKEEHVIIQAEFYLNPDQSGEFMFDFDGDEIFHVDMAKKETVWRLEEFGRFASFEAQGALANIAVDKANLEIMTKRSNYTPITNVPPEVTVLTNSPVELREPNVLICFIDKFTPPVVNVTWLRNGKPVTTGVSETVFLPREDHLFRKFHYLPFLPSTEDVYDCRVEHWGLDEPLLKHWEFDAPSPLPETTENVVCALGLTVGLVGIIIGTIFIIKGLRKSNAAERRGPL
Chain of HLA-DRB1*11:01 (P01903 26-254 limits assumed, other chains not shown): as the sequence (P01903 26-254, other chains not shown) above
Chain of HLA-DRB1*13:02 (P01903 26-254 limits assumed, other chains not shown): as the sequence (P01903 26-254, other chains not shown) above

CC[C@H](C)[C@H](NC(=O)[C@H](Cc1ccccc1)NC(=O)[C@@H](N)CO)C(=O)N[C@@H](CCC(=O)O)C(=O)N[C@@H](CC(=O)O)C(=O)N[C@@H](CC(C)C)C(=O)N[C@@H](CC(C)C)C(=O)N[C@@H](Cc1ccccc1)C(=O)N[C@@H](CC(N)=O)C(=O)N[C@@H](CCCCN)C(=O)N[C@H](C(=O)N[C@H](C(=O)N[C@@H](CC(C)C)C(=O)N[C@@H](C)C(=O)N[C@@H](CC(=O)O)C(=O)O)[C@@H](C)O)C(C)C [peptide 164]
IC50 (HLA-DRB1*01:01): 4.35 µM
IC50 (HLA-DRB1*03:01): 3.23 µM
IC50 (HLA-DRB1*04:01): 1.1 µM
IC50 (HLA-DRB1*04:05): 2.17 µM
IC50 (HLA-DRB1*07:01): 3.96 µM
IC50 (HLA-DRB1*08:02): 15.2 µM
IC50 (HLA-DRB1*09:01): 1.3 µM
IC50 (HLA-DRB1*11:01): 13.2 µM
IC50 (HLA-DRB1*12:01): 0.537 µM
IC50 (HLA-DRB1*13:02): 0.174 µM
IC50 (HLA-DRB1*15:01): 3.17 µM

CC[C@H](C)[C@H](NC(=O)[C@H](Cc1ccccc1)NC(=O)[C@H](CO)NC(=O)[C@H](CCCNC(=N)N)NC(=O)[C@H](CCCCN)NC(=O)[C@H](CO)NC(=O)[C@@H]1CCCN1C(=O)[C@@H](N)CCCCN)C(=O)N[C@@H](CCC(=O)O)C(=O)N[C@@H](CC(=O)O)C(=O)N[C@@H](CC(C)C)C(=O)N[C@@H](CC(C)C)C(=O)N[C@@H](Cc1ccccc1)C(=O)N[C@@H](CC(N)=O)C(=O)N[C@@H](CCCCN)C(=O)O [peptide 163]
IC50 (HLA-DRB1*01:01): > 40 µM
IC50 (HLA-DRB1*03:01): 1.5 µM
IC50 (HLA-DRB1*04:01): 0.451 µM
IC50 (HLA-DRB1*04:05): 3.44 µM
IC50 (HLA-DRB1*07:01): 1.93 µM
IC50 (HLA-DRB1*08:02): 3.41 µM
IC50 (HLA-DRB1*09:01): 0.519 µM
IC50 (HLA-DRB1*11:01): 0.301 µM
IC50 (HLA-DRB1*12:01): 3.98 µM
IC50 (HLA-DRB1*13:02): > 40 µM
IC50 (HLA-DRB1*15:01): 6.81 µM

CC(C)C[C@H](NC(=O)[C@H](Cc1ccccc1)NC(=O)[C@@H]1CCCN1C(=O)[C@H](CC(=O)O)NC(=O)[C@H](CC(N)=O)NC(=O)[C@H](CS)NC(=O)[C@H](Cc1ccccc1)NC(=O)[C@H](CCC(N)=O)NC(=O)[C@H](Cc1ccccc1)NC(=O)[C@H](CCC(=O)O)NC(=O)[C@@H](N)CS)C(=O)NCC(=O)N[C@H](C(=O)N[C@@H](Cc1ccc(O)cc1)C(=O)N[C@@H](Cc1ccc(O)cc1)C(=O)O)C(C)C [peptide 27]
IC50 (HLA-DRB1*15:01; read-out: in vitro binding capacity (IC50), DRB1*15:01): 7.65 µM
responding patients, DRB1*01:01 (CD4+ T cells; responders / study participants carrying DRB1*01:01, CD4+ IFN-γ response, peptide 10 μg mL−1, after 14 days expansion): 4/6
responding patients, DRB1*03:01 (CD4+ T cells; responders / study participants carrying DRB1*03:01, CD4+ IFN-γ response, peptide 10 μg mL−1, after 14 days expansion): 2/3
responding patients, DRB1*04:01 (CD4+ T cells; responders / study participants carrying DRB1*04:01, CD4+ IFN-γ response, peptide 10 μg mL−1, after 14 days expansion): 4/4
responding patients, DRB1*07:01 (CD4+ T cells; responders / study participants carrying DRB1*07:01, CD4+ IFN-γ response, peptide 10 μg mL−1, after 14 days expansion): 5/8
responding patients, DRB1*11:01 (CD4+ T cells; responders / study participants carrying DRB1*11:01, CD4+ IFN-γ response, peptide 10 μg mL−1, after 14 days expansion): 3/3
responding patients, DRB1*12:01 (CD4+ T cells; responders / study participants carrying DRB1*12:01, CD4+ IFN-γ response, peptide 10 μg mL−1, after 14 days expansion): 0/1
responding patients, DRB1*15:01 (CD4+ T cells; responders / study participants carrying DRB1*15:01, CD4+ IFN-γ response, peptide 10 μg mL−1, after 14 days expansion): 3/7
response frequency (RF) / recognition rate of CD4+ T-cell response (CD4+ T cells; share of the 35 participants with a CD4+ IFN-γ response to the peptide): 64%
binding to HLA-DPB1*04:01 (HLA-DPB1*04:01): high affinity
binding to HLA-DPB1*04:02 (HLA-DPB1*04:02): high affinity
